Results published in US20240238212A1, “LIPID COMPOUNDS AND LIPID NANOPARTICLE COMPOSITIONS” (SUZHOU ABOGEN BIOSCIENCES CO., LTD., priority 2022, published 2024).

Columns and labels:
[1] = system: human erythropoietin (hEPO) mRNA expression; assay: Animal Study 1: hEPO mRNA LNPs i.v. in mice, serum EPO by ELISA; assay type: in vivo; settings: female ICR mice, 0.5 mg/kg tail vein injection, blood e.g. 6 hours post administration; relative to MC3 LNP
Procedure: Lipid nanoparticles comprising compounds in the following table encapsulating human erythropoietin (hEPO) mRNA were systemically administered to 6-8 week old female ICR mice (Xipuer-Bikai, Shanghai) at 0.5 mg/kg dose by tail vein injection and mice blood were sampled at specific time points (e.g., 6 hours) post administration. In addition to the aforementioned tested groups, lipid nanoparticles comprising dilinoleylmethyl-4-dimethylaminobutyrate (DLin-MC3-DMA, usually abbreviated to MC3) encapsulating hEPO mRNA were similarly administered at the same dose to age and gender comparative groups of mice as a positive control.
Mice were euthanized by CO2 overdoses after the last sampling time point. Serum were separated from total blood by centrifugation at 5000 g for 10 minutes at 4 T, snap-frozen and stored at −80 T for analysis. ELISA assay were carried out using a commercial kit (DEP00, R&D systems) according to manufacturer's instructions.
Characteristics of tested lipid nanoparticles, including EPO expression levels over MC3 measured from the tested group are listed in the table below.

[2] = Encapsulation efficiency of lipid nanoparticles (Quant-it Ribogreen RNA assay); assay type: physicochemical; settings: LNP comprising the compound
Procedure: (§1) Briefly, a cationic lipid provided herein, DSPC, cholesterol, and PEG-lipid were solubilized in ethanol at a molar ratio of 50:10:38.5:1.5, and mRNA were diluted in 10 to 50 mM citrate buffer, pH=4. The LNPs were prepared at a total lipid to mRNA weight ratio of approximately 10:1 to 30:1 by mixing the ethanolic lipid solution with the aqueous mRNA solution at a volume ratio of 1:3 using a microfluidic apparatus, total flow rate ranging from 9-30 mL/min. Ethanol were thereby removed and replaced by DPBS using dialysis. Finally, the lipid nanoparticles were filtered through a 0.2 μm sterile filter.
(§2) Lipid nanoparticle size were determined by dynamic light scattering using a Malvern Zetasizer Nano ZS (Malvern UK) using a 173° backscatter detection mode. The encapsulation efficiency of lipid nanoparticles were determined using a Quant-it Ribogreen RNA quantification assay kit (Thermo Fisher Scientific, UK) according to the manufacturer's instructions.

[3] = Lipid nanoparticle size and polydispersity by dynamic light scattering; assay type: physicochemical; settings: LNP comprising the compound
Procedure: as §1, §2

[4] = Lipid clearance study: lipid remaining in liver tissue by LC-MS/MS; settings: mouse liver; for % Dose Remaining in Liver Tissue, 6 h: 6 h after 0.5 mg/kg i.v. bolus dose mRNA; for % Dose Remaining in Liver Tissue, 24 h: 24 h after 0.5 mg/kg i.v. bolus dose mRNA; for % Dose Remaining in Liver Tissue, 48 h: 48 h after 0.5 mg/kg i.v. bolus dose mRNA
Procedure: LNPs were injected into mice via the tail vein (ICR female, IV, 0.5 mg mRNA/kg), then mice were anesthetized under carbon dioxide at different time (e.g., 6 h, 24 h, and 48 h) after administration and sacrificed via cardiac puncture. Liver tissue were collected immediately, and then washed by ice-cold saline. Liver samples were weighed and homogenized in ice water bath by adding pre-chilled 20% methanol-water (v/v) at 2˜8° C. with the ratio of 1:5 (w/v). The homogenized tissue samples were stored in −90˜−60° C. freezer prior to analysis.
All liver tissue homogenate samples were allowed to thaw at room temperature. An aliquot of 50 μL of sample was added with 50 μL MgCl2 (2M), then added with ACN which contains of Verapamil, 5 ng mL-1 and Glibenclamide, 50 ng mL-1 and Diclofenac, 200 ng mL^−1 and Tolbutamide, 200 ng mL^−1 for protein precipitation, then centrifuged at 13000 rpm for 8 min. Then 100 μL of supernatant was added with 100 μL water, then vortexed well. An aliquot of 5 μL of the mixture was injected into the LC-MS/MS system.

[5] = system: luciferase mRNA expression; assay: Animal Study 2: luciferase mRNA LNPs i.v. in mice, optical imaging; assay type: in vivo; settings: female Balb/c mice, 0.25 mg/kg tail vein injection, e.g. 6 hours; relative to MC3 LNP
Procedure: Lipid nanoparticles comprising compounds in the following table encapsulating mRNA encoding luciferase were systemically administered to 6-8 week old female Balb/c mice (Charles River Lab, ZheJiang) at 0.25 mg/kg dose by tail vein injection and mice blood were sampled at specific time points (e.g., 6 hours) post administration. Optical imaging was performed using the IVIS Spectrum CT device (PerkinElmer Inc., Paris, France). The luminescence level was evaluated by an ROI applied to the injection site zone (Living Image software, PerkinElmer Inc., Paris, France). In addition to the aforementioned tested groups, lipid nanoparticles comprising dilinoleylmethyl-4-dimethylaminobutyrate (other names: DLin-MC3-DMA or MC3) encapsulating luciferase mRNA were similarly administered at the same dose to age and gender comparative groups of mice as a positive control.
Characteristics of tested lipid nanoparticles, including luciferase expression levels over MC3 measured from the tested group are listed in the table below.

[6] = Apparent pKa of LNP formulations (TNS fluorescence assay); assay type: physicochemical; settings: LNP formulation
Procedure: As reported in literature, the apparent pKa of LNP formulations correlates with the delivery efficiency of LNPs for nucleic acids in vivo. The apparent pKa of each formulation was determined using an assay based on fluorescence of 2-(p-toluidino)-6-napthalene sulfonic acid (TNS). LNP formulations comprising of cationic lipid/DSPC/cholesterol/DMG-PEG (50/10/38.5/1.5 mol %) in PBS were prepared as described above. TNS was prepared as a 300 μM stock solution in distilled water. LNP formulations were diluted to 0.1 mg/mL total lipid in 3 mL of buffered solutions containing 50 mM sodium citrate, 50 mM sodium phosphate, 50 mM sodium borate, and 30 mM sodium chloride where the pH ranged from 3 to 9. An aliquot of the TNS solution was added to give a final concentration of […] and following vortex mixing fluorescence intensity was measured at room temperature in a Molecular Devices Spectramax iD3 spectrometer using excitation and mission wavelengths of 325 nm and 435 nm. A sigmoidal best fit analysis was applied to the fluorescence data and the pKa value was measured as the pH giving rise to half-maximal fluorescent intensity.

[7] = hEPO mRNA, cationic lipid/DSPC/cholesterol/PEG-lipid 50:10:38.5:1.5

Row | Encapsulation efficiency ([2]; hEPO mRNA) [%] | Polydispersity ([3]; hEPO mRNA) | Size (nm) [3, 7] [nm] | % Dose Remaining in Liver Tissue, 6 h [4] [%] | % Dose Remaining in Liver Tissue, 24 h [4] [%] | % Dose Remaining in Liver Tissue, 48 h [4] [%] | Encapsulation efficiency ([2]; luciferase mRNA) [%] | Apparent pKa ([6]; TNS assay (Table 3)) | Polydispersity ([3]; luciferase mRNA) | Size (nm) ([3]; luciferase mRNA) | Apparent pKa ([6]; TNS assay (Table 2)) | SMILES | EPO expression over MC3 [1] | luciferase expression over MC3 [5]
1 | 85.63 | 0.082 | 59.17 | 3.1 | 0.537 | 0.139 |  |  |  |  |  | CCCCCCCCC(CCCCCC)CNC(=O)CCCCCN(CCO)CCCCC(COC(=O)CCCCCCC)COC(=O)CCCCCCC (centres unmarked) [Compound 11] | D (<0.1) | 
2 |  |  |  |  |  |  | 93.20 | 6.809 | 0.011 | 73.37 |  | CCCCCCCC(=O)OCC(CCCCN(CCCCC(COC(=O)CCCCCCC)COC(=O)CCCCCCC)CCCNc1c(N(CC)CCO)c(=O)c1=O)COC(=O)CCCCCCC [Compound 60] |  | C (≥0.1 and <1)
3 | 91.36 | 0.084 | 61.45 | 0.981 | 0.19 | 0.038 |  |  |  |  | 6.624 | CCCCCCCCC(CCCCCC)COC(=O)CCCCCN(CCO)CCCCC(COC(=O)CCCCCCC)COC(=O)CCCCCCC (centres unmarked) [Compound 10] | B (≥1 and <2) | 
4 |  |  |  |  |  |  | 90.36 | 7.046 | 0.026 | 86.07 |  | CCCCCCCCCCCCCCCCCC(=O)OCCCCCCN(CCCCC(COC(=O)CCCCCCC)COC(=O)CCCCCCC)C1CC(O)C1 (centres unmarked) [Compound 57] |  | A (≥2)
5 |  |  |  |  |  |  | 89.76 | 6.948 | 0.053 | 81.27 |  | CCCCC/C=C\C/C=C\CCCCCCCC(=O)OCCCCCCN(CCCCC(COC(=O)CCCCCCC)COC(=O)CCCCCCC)C1CC(O)C1 (centres unmarked) [Compound 58] |  | A (≥2)
6 | 89.49 | 0.073 | 82.87 | 2.646 | 0.098 | 0 |  |  |  |  |  | CCCCCCCC(=O)OCC(CCCCN(CCCCC(COC(=O)CCCCCCC)COC(=O)CCCCCCC)CCOCCO)COC(=O)CCCCCCC [Compound 5] | A (≥2) | 
7 | 84.70 | 0.051 | 95.24 | 1.274 | 0.068 | 0 |  |  |  |  | 6.992 | CCCCCCCCCCCOC(=O)CCCCCN(CCO)CCCOC(COC(=O)CCCCCCC)COC(=O)CCCCCCC [Compound 8] | C (≥0.1 and <1) | 
8 | 87.29 | 0.046 | 111.6 | 1.071 | 0.089 | 0 |  |  |  |  | 6.558 | CCCCCCCC(=O)OCC(COC(=O)CCCCCCC)OCCCN(CCCOC(COC(=O)CCCCCCC)COC(=O)CCCCCCC)CCN(CCO)C1CCC1 [Compound 9] | A (≥2) | 
9 | 90.78 | 0.021 | 68.14 |  |  |  |  |  |  |  | 6.509 | CCCCCCCC(=O)OCC(CCCCN(CCCCC(COC(=O)CCCCCCC)COC(=O)CCCCCCC)C1CCC(O)CC1)COC(=O)CCCCCCC (centres unmarked) [Compound 16] | A (≥2) | 
10 | 94.95 | 0.026 | 87.2 |  |  |  |  |  |  |  | 6.705 | CCCCCCCC(=O)OCC(COC(=O)CCCCCCC)COC(=O)CCCCCN(CCCCO)CCCCCC(=O)OCC(COC(=O)CCCCCCC)COC(=O)CCCCCCC [Compound 67] | A (≥2) | 
11 | 93.58 | 0.057 | 62.64 |  |  |  |  |  |  |  | 6.251 | CCCCCCCCOC(CCCCCN(CCCCO)CCCCCC(OCCCCCCCC)OCCCCCCCC)OCCCCCCCC [Compound 18] | B (≥1 and <2) | 
12 | 93.47 | 0.074 | 66.83 |  |  |  |  |  |  |  | 6.703 | CCCCCCCCC(=O)OCC(COC(=O)CCCCCCCC)COC(=O)CCCCCN(CCO)CCCCCC(=O)OCC(COC(=O)CCCCCCCC)COC(=O)CCCCCCCC [Compound 75] | A (≥2) | 
13 | 89.99 | 0.039 | 91.46 |  |  |  |  |  |  |  | 6.767 | CCCCCCCC(=O)OCC(CCCCN(CCCCC(COC(=O)CCCCCCC)COC(=O)CCCCCCC)[C@@H]1CC[C@H](O)C1)COC(=O)CCCCCCC [Compound 47] | A (≥2) | 
14 | 96.64 | 0.056 | 79.67 |  |  |  |  |  |  |  | 6.189 | CCCCCCCCOC(CCCCCN(CCCCCC(OCCCCCCCC)OCCCCCCCC)CCOCCO)OCCCCCCCC [Compound 17] | C (≥0.1 and <1) | 
15 | 88.34 | 0.005279 | 93.13 |  |  |  |  |  |  |  | 6.69 | CCCCC/C=C\C/C=C\CCCCCCCC(=O)OCCCCCCN(CCCCC(COC(=O)CCCCCCC)COC(=O)CCCCCCC)C1CCC(O)CC1 (centres unmarked) [Compound 37] | A (≥2) | 
16 | 86.98 | 0.031 | 80.75 |  |  |  |  |  |  |  | 6.513 | CCCCCCCC(=O)OCC(CCCCCCN(CCCCCO)CCCCCCC(COC(=O)CCCCCCC)COC(=O)CCCCCCC)COC(=O)CCCCCCC [Compound 29] | A (≥2) | 
17 | 87.69 | 0.06385 | 100.3 |  |  |  |  |  |  |  | 6.799 | CCCCCCCC/C=C\CCCCCCCC(=O)OCCCCCCN(CCCCC(COC(=O)CCCCCCC)COC(=O)CCCCCCC)C1CCC(O)CC1 (centres unmarked) [Compound 38] | B (≥1 and <2) | 
